According to ChEMBL document CHEMBL1128092, “Potent, orally bioavailable HIV-1 protease inhibitors containing noncoded D-amino acids” (Bioorg Med Chem Lett, 1995):

Experiments:
[1] = target: Human immunodeficiency virus type 1 protease (Human immunodeficiency virus 1, UniProt Q72874); experiment: Inhibitory activity against HIV-1 protease
[2] = system: CCRF-CEM; experiment: (§1) Antiviral activity to inhibit viral replication of HIV-1 infected CEM cells; format: functional; details: Homo sapiens
[3] = system: CCRF-CEM; experiment: as §1; format: functional, cell-based; details: Homo sapiens

| IC50 [1] | IC50 [3] | Structure (SMILES) | IC95 [2] |
| --- | --- | --- | --- |
| < 0.0002 µM | 0.015 µM | CC(C)(C)NC(=O)[C@@H]1C[C@@H]2SCC[C@@H]2CN1C[C@@H](O)[C@H](Cc1ccccc1)NC(=O)[C@@H](CS(=O)(=O)c1ccc(F)cc1)NC(=O)C(F)(F)F | 0.058 µM |
| 0.0005 µM | 0.0032 µM | CC(C)(C)NC(=O)[C@@H]1C[C@@H]2CCCC[C@@H]2CN1C[C@@H](O)[C@H](Cc1ccccc1)NC(=O)[C@@H](CS(=O)(=O)c1ccc2ccccc2c1)NS(C)(=O)=O | 0.01 µM |
| 0.00071 µM | 0.072 µM | CC(C)(C)NC(=O)[C@@H]1C[C@@H]2SCC[C@@H]2CN1C[C@@H](O)[C@H](Cc1ccccc1)NC(=O)[C@@H](CS(=O)(=O)c1cccc2cccnc12)NS(C)(=O)=O | 0.25 µM |
| 0.0005 µM | 0.0019 µM | CC(=O)N[C@H](CS(=O)(=O)c1ccc2ccccc2c1)C(=O)N[C@@H](Cc1ccccc1)[C@H](O)CN1C[C@H]2CCS[C@H]2C[C@H]1C(=O)NC(C)(C)C | 0.023 µM |
| 0.0018 µM | 0.057 µM | CC(C)(C)NC(=O)[C@@H]1C[C@@H]2SCC[C@@H]2CN1C[C@@H](O)[C@H](CSc1ccccc1)NC(=O)[C@@H](CS(=O)(=O)c1ccc2ccccc2c1)NC(=O)C(F)(F)F | 0.24 µM |
| 0.0006 µM | 0.0091 µM | CC(C)(C)NC(=O)[C@@H]1C[C@@H]2CCCC[C@@H]2CN1C[C@@H](O)[C@H](Cc1ccccc1)NC(=O)[C@@H](C[S+]([O-])c1ccc(F)cc1)NS(C)(=O)=O (some centres undefined) | 0.031 µM |
| 0.0021 µM | 0.014 µM | CC(C)CN(C[C@@H](O)[C@H](Cc1ccccc1)NC(=O)[C@@H](C[S+]([O-])c1ccc2ccccc2c1)NS(C)(=O)=O)C(=O)NC(C)(C)C (some centres undefined) | 0.062 µM |
| 0.002 µM | 0.017 µM | CC(C)(C)NC(=O)[C@@H]1C[C@@H]2CCCC[C@@H]2CN1C[C@@H](O)[C@H](Cc1ccccc1)NC(=O)[C@@H](CS(=O)(=O)c1ccc(F)cc1)NS(C)(=O)=O | 0.054 µM |
| 0.0018 µM | 0.057 µM | CC(=O)N[C@H](CS(=O)(=O)c1ccc(F)cc1)C(=O)N[C@@H](CSc1ccccc1)[C@H](O)CN1C[C@H]2CCS[C@H]2C[C@H]1C(=O)NC(C)(C)C | 0.18 µM |
| 0.085 µM | 17 µM | CC(C)CN(C[C@@H](O)[C@H](Cc1ccccc1)NC(=O)[C@@H](CSc1ccc(F)cc1)NS(C)(=O)=O)C(=O)NC(C)(C)C | 36 µM |
| 0.0017 µM | 0.0019 µM | CC(=O)N[C@H](CS(=O)(=O)c1cccc2cccnc12)C(=O)N[C@@H](Cc1ccccc1)[C@H](O)CN1C[C@H]2CCCC[C@H]2C[C@H]1C(=O)NC(C)(C)C | 0.064 µM |
| 0.0051 µM | 0.071 µM | CC(C)(C)NC(=O)[C@@H]1C[C@@H]2CCCC[C@@H]2CN1C[C@@H](O)[C@H](Cc1ccccc1)NC(=O)[C@@H](CSc1ccc2ccccc2c1)NS(C)(=O)=O | 1.9 µM |
| 0.01 µM | 10 µM | CC(C)CN(C[C@@H](O)[C@H](Cc1ccccc1)NC(=O)[C@@H](CS(=O)(=O)c1ccc(F)cc1)NS(C)(=O)=O)C(=O)NC(C)(C)C | 21 µM |
|  | 0.07 µM | CC(=O)N[C@H](CS(=O)(=O)c1ccc(F)cc1)C(=O)N[C@@H](Cc1ccccc1)[C@H](O)CN1C[C@H]2CCS[C@H]2C[C@H]1C(=O)NC(C)(C)C | 0.73 µM |
| 0.0016 µM | 0.0095 µM | CC(=O)N[C@H](CS(=O)(=O)c1ccc2ccccc2c1)C(=O)N[C@@H](Cc1ccccc1)[C@H](O)CN1C[C@H]2CCCC[C@H]2C[C@H]1C(=O)NC(C)(C)C | 0.022 µM |
| 0.0004 µM | 0.0038 µM | CC(C)(C)NC(=O)[C@@H]1C[C@@H]2CCCC[C@@H]2CN1C[C@@H](O)[C@H](Cc1ccccc1)NC(=O)[C@@H](C[S+]([O-])c1ccc2ccccc2c1)NS(C)(=O)=O (some centres undefined) | 0.0082 µM |
| 0.00021 µM | 0.018 µM | CC(C)(C)NC(=O)[C@@H]1C[C@@H]2SCC[C@@H]2CN1C[C@@H](O)[C@H](Cc1ccccc1)NC(=O)[C@@H](CS(=O)(=O)c1cccc2cccnc12)NC(=O)C(F)(F)F | 0.062 µM |
| < 0.0002 µM | 0.027 µM | CC(C)(C)NC(=O)[C@@H]1C[C@@H]2SCC[C@@H]2CN1C[C@@H](O)[C@H](Cc1ccccc1)NC(=O)[C@@H](CS(=O)(=O)c1ccc2ccccc2c1)NS(C)(=O)=O | 0.085 µM |
| 0.05 µM | 4.7 µM | CC(C)CN(C[C@@H](O)[C@H](Cc1ccccc1)NC(=O)[C@@H](CSc1ccc2ccccc2c1)NS(C)(=O)=O)C(=O)NC(C)(C)C | 9.9 µM |
| 0.00022 µM | 0.043 µM | CC(C)(C)NC(=O)[C@@H]1C[C@@H]2SCC[C@@H]2CN1C[C@@H](O)[C@H](Cc1ccccc1)NC(=O)[C@@H](CS(=O)(=O)c1ccc(F)cc1)NS(C)(=O)=O | 0.19 µM |
| 0.006 µM | 0.077 µM | CC(=O)N[C@H](CSCc1ccccc1)C(=O)N[C@@H](Cc1ccccc1)[C@H](O)CN1C[C@H]2CCCC[C@H]2C[C@H]1C(=O)NC(C)(C)C | 0.305 µM |
| < 0.0002 µM | 0.0046 µM | CC(C)(C)NC(=O)[C@@H]1C[C@@H]2SCC[C@@H]2CN1C[C@@H](O)[C@H](Cc1ccccc1)NC(=O)[C@@H](CS(=O)(=O)c1ccc2ccccc2c1)NC(=O)C(F)(F)F | 0.032 µM |
| 0.00042 µM | 0.14 µM | CC(=O)N[C@H](CS(=O)(=O)c1cccc2cccnc12)C(=O)N[C@@H](Cc1ccccc1)[C@H](O)CN1C[C@H]2CCS[C@H]2C[C@H]1C(=O)NC(C)(C)C | 0.3 µM |
| 0.024 µM | 0.15 µM | CC(C)(C)NC(=O)[C@@H]1C[C@@H]2CCCC[C@@H]2CN1C[C@@H](O)[C@H](Cc1ccccc1)NC(=O)[C@@H](CSc1ccc(F)cc1)NS(C)(=O)=O | 0.55 µM |
| 0.01 µM | 0.18 µM | CC(C)(C)NC(=O)[C@@H]1C[C@@H]2SCC[C@@H]2CN1C[C@@H](O)[C@H](CSc1ccccc1)NC(=O)[C@@H](CS(=O)(=O)c1ccc(F)cc1)NC(=O)C(F)(F)F | 0.84 µM |
